Values of other authors as cited in US6641838B2, “Effervescent drug delivery system for oral administration” (Cima Labs Inc., priority 1998, dated 2003).

Settings: in vivo, po

Row | Compound | Bioavailability (%) | average bioavailability | range of bioavailability (inter- and intrasubject variability)
1 | CNC1(c2ccccc2Cl)CCCCC1=O (stereo not shown) [Ketamine] | 20 ± 7% | – | –
2 | Oc1ccc2c3c1O[C@H]1[C@@H](O)CC[C@@]4(O)[C@@H](C2)N(CC2CCC2)CC[C@]314 [Nalbuphine] | 25 ± 16% | approximately 17% | 6-40%
3 | CN(C)C(=O)Oc1ccc[n+](C)c1 [Pyridostigmine] | 14 ± 3% | – | –
4 | Methyldopa | 25 ± 16% | 25% | –

Same assay, conditions: orally administered drug, conventional dosage forms; examples of drugs with poor bioavailability

Row | Compound | Bioavailability (%)
5 | Nc1nc2c(ncn2COCCO)c(=O)[nH]1 [Acyclovir] | 15 − 30%
6 | CC(=O)OC[C@H]1O[C@@H]([S-])[C@H](OC(C)=O)[C@@H](OC(C)=O)[C@@H]1OC(C)=O.CCP(CC)CC.[Au+] [Auranofin] | 15 − 25%
7 | CC[N+](C)(C)Cc1ccccc1Br [Bretylium] | 23 ± 9%
8 | Nc1ccn([C@@H]2O[C@H](CO)[C@@H](O)[C@@H]2O)c(=O)n1 [Cytarabine] | 20%
9 | CN(C)CCC=C1c2ccccc2COc2ccccc21 [Doxepin] | 27 ± 10%
10 | NNc1nncc2ccccc12 [Hydralazine] | 16 − 35%
11 | CC(CCc1ccccc1)NCC(O)c1ccc(O)c(C(N)=O)c1 (stereo not shown) [Labetalol] | 18 ± 5%
12 | Sc1ncnc2nc[nH]c12 [Mercaptopurine] | 12 ± 7%
13 | C=CCN1CC[C@]23c4c5ccc(O)c4O[C@H]2C(=O)CC[C@@]3(O)[C@H]1C5 [Naloxone] | 2%
14 | CC(=O)CCCCn1c(=O)c2c(ncn2C)n(C)c1=O [Pentoxifylline] | 19 ± 13%
15 | Cc1cc2nc3c(=O)[nH]c(=O)nc-3n(C[C@H](O)[C@H](O)[C@H](O)CO)c2cc1C [Riboflavin] | 11%
16 | CC(C)(C)NCC(O)c1cc(O)cc(O)c1 (stereo not shown) [Terbutaline] | 14 ± 2%
